Data taken from patent US20160046592A1, “PHARMACEUTICAL COMPOSITION FOR THE TREATMENT OF DIABETES” (Ajinomoto Co., Inc., priority 2013, published 2016).
Where a name gives a salt, the structure may show the parent alone.

Target: T1, PPAR-α (Homo sapiens, UniProt Q07869)
T1 construct: expressed in transfected cells; host or cells: CV-1 (African green monkey kidney)
T1 sequence (Q07869 167-468): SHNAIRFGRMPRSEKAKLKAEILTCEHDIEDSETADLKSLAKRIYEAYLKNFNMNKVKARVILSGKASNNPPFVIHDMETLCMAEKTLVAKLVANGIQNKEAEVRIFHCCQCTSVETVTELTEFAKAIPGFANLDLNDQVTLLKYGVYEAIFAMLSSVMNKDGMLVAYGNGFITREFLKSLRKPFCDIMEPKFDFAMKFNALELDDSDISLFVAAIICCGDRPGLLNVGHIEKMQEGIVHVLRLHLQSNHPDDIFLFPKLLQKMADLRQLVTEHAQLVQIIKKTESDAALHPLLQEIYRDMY
Experiment: Measurement of PPAR-α activity (GAL4 luciferase reporter assay in CV-1 cells)
Assay type: cell-based
Settings: 100(A/B): A = maximum PPAR-α activity of test compound at 3, 10, 30 and 100 μM, B = activity of the compound of WO/2011/058154 at 100 μM, 18 to 20 hours, read-out: Relative fold induction (%) of PPAR α
Description: The PPAR-α activity was measured according to the published article (THE JOURNAL OF BIOLOGICAL CHEMISTRY Vol. 270, No 0.22: 12953-12956, 1995).
Plasmids used for the PPAR-α activity measurement were constructed as follows. A luciferase expression plasmid (UAS×5-TK-Luc) used was obtained by introducing a sequence in which five yeast GAL4-binding sequences are linked in tandem into a portion upstream of a thymidine kinase promoter of pTAL-Luc (Takara Bio Inc., 6252-1). A PPAR-α receptor expression plasmid (hGR-GAL4-hPPARα) used was obtained by introducing a human GR N-terminal region (1-76aa), a yeast GAL4 DNA-binding region (1-147aa), and a PPARα ligand-binding region (167-468aa) between Not I and Sal I sites of pExchange-1 Core Vector (Invitrogen, 211176).
A reporter assay was conducted by the following method using African green monkey kidney-derived CV-1 cells. The CV-1 cells were seeded in a 96-well plate (Thermo Fisher Scientific K.K., 4938) at 2×10^4 cells/well by using a 10% FBS-containing DMEM (NACALAI TESQUE, INC., 0845874) medium. After culturing under conditions of 37° C. and 5% CO2 for 2 hours, the cells were transfected with the plasmids. The transfection was conducted by using Lipofectamine LTX (Invitrogen, 15338-100) according to the attached manual. The plasmid solution was prepared by adding a mixture solution of the luciferase expression plasmid and the PPAR-α receptor expression plasmid to OPTI-MEM I (Invitrogen, 11058-021). After the transfection, the test compound was added, and the cells were cultured at 37° C. in the presence of 5% CO2 for 18 to 20 hours. After the culturing, the luciferase activity was measured with Luminescensor JNR (ATTO) by using Bright-Glo (Promega, E2620).
The fold induction of PPAR-α by each test compound was calculated by the following method. A relative fold induction (%) of PPAR-α by the test compound was defined as 100 (A/B), where A represents the maximum value of the PPAR-α activities of the test compound at 3 μM, 10 μM, 30 μM, and 100 μM, and B represents the PPAR-α activity of the compound of WO/2011/058154 at 100 μM.

SMILES | Emax [%]
CSc1cc(F)c(F)cc1-c1ccc(OCc2cccc(C(=O)N(CC(=O)O)Cc3ccncc3)c2)cc1 [Example 19, 2-[[3-[[4-(4,5-Difluoro-2-methylsulfanyl-phenyl)phenoxy]methyl]benzoyl]-(4-pyridylmethyl)amino]acetic Acid Trifluoroacetate] | 21
CSc1cc(F)c(F)cc1-c1ccc(OCc2cccc(C(=O)N(CC(=O)O)Cc3ccccn3)c2)cc1 [Example 20, 2-[[3-[[4-(4,5-Difluoro-2-methylsulfanyl-phenyl)phenoxy]methyl]benzoyl]-(2-pyridylmethyl)amino]acetic Acid Trifluoroacetate] | 13
CCN(CC)CCN(CC(=O)O)C(=O)c1cccc(COc2ccc(-c3cc(F)c(F)cc3SC)cc2)c1 [Example 24, 2-[2-Diethylaminoethyl-[3-[[4-(4,5-difluoro-2-methylsulfanyl-phenyl)phenoxy]methyl]benzoyl]amino]acetic Acid Trifluoroacetate] | 13
CSc1cc(F)c(F)cc1-c1ccc(OCc2cccc(C(=O)N(CC(=O)O)CC(=O)N3CCCC3)c2)cc1 [Example 25, 2-[[3-[[4-(4,5-Difluoro-2-methylsulfanyl-phenyl)phenoxy]methyl]benzoyl]-(2-oxo-2-pyrrolidin-1-yl-ethyl)amino]acetic Acid] | 13
CSc1cc(F)c(F)cc1-c1ccc(OCc2cccc(C(=O)N(CCCN(C)C)CC(=O)O)c2)cc1 [Example 26, 2-[[3-[[4-(4,5-Difluoro-2-methylsulfanyl-phenyl)phenoxy]methyl]benzoyl]-[3-(dimethylamino)propyl]amino]acetic Acid Trifluoroacetate] | 11
CSc1cc(F)c(F)cc1-c1ccc(OCc2cccc(C(=O)N3C[C@H](O)C[C@H]3C(=O)O)c2)cc1 [Example 29, (2S,4R)-1-[3-[[4-(4,5-Difluoro-2-methylsulfanyl-phenyl)phenoxy]methyl]benzoyl]-4-hydroxy-pyrrolidine-2-carboxylic Acid] | 22
CSc1cc(F)c(F)cc1-c1ccc(OCc2cccc(C(=O)N(CC(=O)O)CC3CCOCC3)c2)cc1 [Example 34, 2-[[3-[[4-(4,5-Difluoro-2-methylsulfanyl-phenyl)phenoxy]methyl]benzoyl]-(tetrahydropyran-4-ylmethyl)amino]acetic Acid] | 7.3
CSc1cc(F)c(F)cc1-c1ccc(OCc2cccc(C(=O)N(CC(=O)O)CC3CCNCC3)c2)cc1 [Example 35, 2-[[3-[[4-(4,5-Difluoro-2-methylsulfanyl-phenyl)phenoxy]methyl]benzoyl]-(4-piperidylmethyl)amino]acetic Acid Trifluoroacetate] | 8.5
CSc1cc(F)c(F)cc1-c1ccc(OCc2cccc(C(=O)N(CC(=O)O)C3CCNCC3)c2)cc1 [Example 36, 2-[[3-[[4-(4,5-Difluoro-2-methylsulfanyl-phenyl)phenoxy]methyl]benzoyl]-(4-piperidyl)amino]acetic Acid Trifluoroacetate] | 8
CSc1cc(F)c(F)cc1-c1ccc(OCc2cccc(C(=O)N(CC(=O)O)CC3CCN(C)CC3)c2)cc1 [Example 37, 2-[[3-[[4-(4,5-Difluoro-2-methylsulfanyl-phenyl)phenoxy]methyl]benzoyl]-[(1-methyl-4-piperidyl)methyl]amino]acetic Acid Trifluoroacetate] | 10
CCN1CCC(CN(CC(=O)O)C(=O)c2cccc(COc3ccc(-c4cc(F)c(F)cc4SC)cc3)c2)CC1 [Example 38, 2-[[3-[[4-(4,5-Difluoro-2-methylsulfanyl-phenyl)phenoxy]methyl]benzoyl]-[(1-ethyl-4-piperidyl)methyl]amino]acetic Acid Trifluoroacetate] | 8.9
CSc1cc(F)c(F)cc1-c1ccc(OCc2cccc(C(=O)N(CC(=O)O)Cc3cccnc3)c2)cc1 [Example 39, 2-[[3-[[4-(4,5-Difluoro-2-methylsulfanyl-phenyl)phenoxy]methyl]benzoyl]-(3-pyridylmethyl)amino]acetic Acid Trifluoroacetate] | 22
CSc1cc(F)c(F)cc1-c1ccc(OCc2cccc(C(=O)N(CCN3CCCC3)CC(=O)O)c2)cc1 [Example 40, 2-[[3-[[4-(4,5-Difluoro-2-methylsulfanyl-phenyl)phenoxy]methyl]benzoyl]-(2-pyrrolidin-1-ylethyl)amino]acetic Acid Trifluoroacetate] | 9.4
CSc1cc(F)c(F)cc1-c1ccc(OCc2cccc(C(=O)N(CCN3CCS(=O)(=O)CC3)CC(=O)O)c2)cc1 [Example 41, 2-[[3-[[4-(4,5-Difluoro-2-methylsulfanyl-phenyl)phenoxy]methyl]benzoyl]-[2-(1,1-dioxo-1,4-thiazinan-4-yl)ethyl]amino]acetic Acid Trifluoroacetate] | 12
CSc1cc(F)c(F)cc1-c1ccc(OCc2cccc(C(=O)N(CC(=O)O)Cc3ncco3)c2)cc1 [Example 42, 2-[[3-[[4-(4,5-Difluoro-2-methylsulfanyl-phenyl)phenoxy]methyl]benzoyl]-(oxazol-2-ylmethyl)amino]acetic Acid] | 13

More lines, now with the values ahead:

Emax [%] | SMILES
15 | CSc1cc(F)c(F)cc1-c1ccc(OCc2cccc(C(=O)N(CCC(C)O)CC(=O)O)c2)cc1 (stereo not drawn) [Example 21, 2-[[3-[[4-(4,5-Difluoro-2-methylsulfanyl-phenyl)phenoxy]methyl]benzoyl]-(3-hydroxybutyl)amino]acetic Acid]
14 | CSc1cc(F)c(F)cc1-c1ccc(OCc2cccc(C(=O)N(CC(=O)O)[C@@H](C)C(N)=O)c2)cc1 [Example 22, 2-[[(1S)-2-Amino-1-methyl-2-oxo-ethyl]-[3-[[4-(4,5-difluoro-2-methylsulfanyl-phenyl)phenoxy]methyl]benzoyl]amino]acetic Acid]
22 | COC(C)(C)CN(CC(=O)O)C(=O)c1cccc(COc2ccc(-c3cc(F)c(F)cc3SC)cc2)c1 [Example 23, 2-[[3-[[4-(4,5-Difluoro-2-methylsulfanyl-phenyl)phenoxy]methyl]benzoyl]-(2-methoxy-2-methyl-propyl)amino]acetic Acid]
10 | CSc1cc(F)c(F)cc1-c1ccc(OCc2cccc(C(=O)N(CC(=O)O)CC(=O)O)c2)cc1 [Example 27, 2-[Carboxymethyl-[3-[[4-(4,5-difluoro-2-methylsulfanyl-phenyl)phenoxy]methyl]benzoyl]amino]acetic Acid]
10 | CNCCN(CC(=O)O)C(=O)c1cccc(COc2ccc(-c3cc(F)c(F)cc3SC)cc2)c1 [Example 28, 2-[[3-[[4-(4,5-Difluoro-2-methylsulfanyl-phenyl)phenoxy]methyl]benzoyl]-[2-(methylamino)ethyl]amino]acetic Acid Trifluoroacetate]
83 | COCCCN(CC(=O)O)C(=O)c1cccc(COc2ccc(-c3cc(F)c(F)cc3SC)cc2)c1 [Example 30, 2-[[3-[[4-(4,5-Difluoro-2-methylsulfanyl-phenyl)phenoxy]methyl]benzoyl]-(3-methoxypropyl)amino]acetic Acid]
8.4 | CSc1cc(F)c(F)cc1-c1ccc(OCc2cccc(C(=O)N(CCS(C)(=O)=O)CC(=O)O)c2)cc1 [Example 31, 2-[[3-[[4-(4,5-Difluoro-2-methylsulfanyl-phenyl)phenoxy]methyl]benzoyl]-(2-methylsulfonylethyl)amino]acetic Acid]
7.1 | CSc1cc(F)c(F)cc1-c1ccc(OCc2cccc(C(=O)N(CCCS(C)(=O)=O)CC(=O)O)c2)cc1 [Example 32, 2-[[3-[[4-(4,5-Difluoro-2-methylsulfanyl-phenyl)phenoxy]methyl]benzoyl]-(3-methylsulfonylpropyl)amino]acetic Acid]
9 | CCNCCN(CC(=O)O)C(=O)c1cccc(COc2ccc(-c3cc(F)c(F)cc3SC)cc2)c1 [Example 43, 2-[[3-[[4-(4,5-Difluoro-2-methylsulfanyl-phenyl)phenoxy]methyl]benzoyl]-[2-(ethylamino)ethyl]amino]acetic Acid Trifluoroacetate]
